Ends that are not written are not given here.
Legend:
[1] = tested on: HUVEC monolayers; test: Peptide competitive inhibition assay: stationary adhesion of Tp0751-expressing B. burgdorferi (Bb-Tp0751) to HUVEC monolayers; assay type: cell-based, human; settings: for Effect on adhesion of Bb-Tp0751 to HUVEC monolayers: HUVECs on matrigel pre-incubated with 0.1 μg peptide per well for 3 h at 37°C, peptide removed, bacteria 12 h at 36°C, GFP bacteria counted in ten FOV, 400x, compared with scrambled peptide
Procedure: Fig 5 Tp0751 peptide 10 inhibits adhesion of Tp0751-expressing B. burgdorferi to HUVEC monolayers. (A) Schematic showing the experimental design of the competitive inhibition assay. Confluent HUVEC monolayers seeded on artificial basement membrane were preincubated with synthetic Tp0751 peptides (p4, p6, p10, p11, p4scr, p6scr, and p10scr1) to allow for peptide-endothelial cell interactions. HUVECs were then co-incubated with parent (negative control) or Tp0751-expressing B. burgdorferi strains to assess the competitive inhibition capacity of the synthetic Tp0751 peptides. After washing to remove non-adherent bacteria, B. burgdorferi adhesion to HUVECs was quantified using fluorescence microscopy to count the number of adherent bacteria per field of view (FOV) at 400x magnification. (B) Bar graph illustrating the number of adherent B. burgdorferi per FOV. Mean counts ± SEM from ten FOV for each biological replicate are presented with standard error bars. For statistical analyses, attachment by strain Bb-Tp0751 to HUVEC monolayers preincubated with peptides p4, p6, and p10 was compared to the attachment of strain Bb-Tp0751 in the presence of corresponding scrambled peptides, using the Student’s two-tailed t-test. […] The parent and Bb-Tp0751 strains are indicated by clear white bars and striped colored bars, respectively. […] Mean counts ± SEM from ten FOV for each biological replicate are presented with standard error bars. Statistical analysis, was performed using the Student’s two-tailed t-test.
Human umbilical vein endothelial cells (HUVECs) pooled from multiple donors and purchased from Lonza (Allendale, NJ) were cultured in endothelial growth medium-2 (EGM-2) (Lonza) at 37°C in an atmosphere of 5% CO2, as per manufacturer’s instructions. B. burgdorferi strains were cultivated at 36°C in an atmosphere of 1.5% CO2 in BSK-II medium prepared in-house with appropriate antibiotics (100 μg/mL gentamycin, 200 μg/mL kanamycin).
Stationary adhesion assays were adapted from Szczepanski and colleagues and Cameron and colleagues. HUVECs (passage 2–3) were seeded in 4-well chamber slides (Nalge Nunc International, Rochester, NY), coated with 500 μg/mL phenol red-free matrigel (Corning, Tewksbury, MA) and grown 20 h at 37°C in 5% CO2 to form confluent monolayers. Synthetic Tp0751 peptides (p4, p6, p10, p11, […], p4scr, p6scr, and p10scr1) were diluted to 500 μg/ml in HEPES buffered saline solution (Lonza) and HUVECs were pre-incubated with 0.1 μg of Tp0751 peptide per well for 3 h at 37°C in 5% CO2. Peptide solutions were removed from HUVECs prior to the addition of bacteria. Borrelia burgdorferi strains were cultured in biological triplicate, and two days prior to the experiment, B. burgdorferi cultures were passaged to 6x10^5 cells/ml and grown for 48 h to reach a concentration of 2x10^7 cells/ml. Borrelia burgdorferi cultures were then centrifuged and resuspended in a 3:1 mixture of BSK-II:EGM-2 and 1.4x10^7 cells of each biological replicate were added to HUVECs in duplicate wells. […] Quantitation of B. burgdorferi adhesion to HUVECs was performed by counting GFP-expressing bacteria in ten fields of view (FOV) from duplicate wells for each biological replicate under 400X magnification on a Nikon 80i fluorescence microscope (Meridian Instrument Company, Inc., Kent, WA) fitted with a monochrome digital camera, a dark-field condenser, and fluorescein filter (Excelitas Technologies, Mississauga, ON). […]

[2] = tested on: collagen type IV; test: Initial (single point) binding screen of Tp0751 peptide library to immobilized collagen type IV; settings: immobilized human collagen type IV; absorbance 600 nm, three wells, two independent experiments; Student's two-tailed t-test against non-binding peptides
Procedure: (§1) Fig 3 Tp0751 lipocalin derived peptides directly bind host proteins. (A) Thirteen overlapping Tp0751 synthetic 24-mer peptides were evaluated for binding to immobilized fibrinogen, fibronectin, collagen type I, and collagen type IV. Average absorbance readings (600 nm) from three wells are presented with bars indicating standard error and the results are representative of two independent experiments. […] Average absorbance readings (600 nm) from three wells are presented with bars indicating standard error and the results are representative of two independent experiments. […] The strand colored in cyan reflects the overlap of p10 and p11. Color coded sequences of peptides p4, p6, p10, p10scr1, and p10scr2 are shown. Arginine residues in the p10 peptides are indicated by underlining.
(§2) Plasminogen-depleted human fibrinogen (Calbiochem) was purchased from VWR International. Laminin isolated from Engelbreth-Holm-Swarm murine sarcoma basement membrane and fibronectin isolated from human plasma were purchased from Sigma-Aldrich Canada Ltd. (Oakville, ON). Human collagen types I and IV (Rockland Immunochemicals, Inc.) were purchased from VWR International.
(§3) To test for binding of synthetic Tp0751 peptides p1-p13, p1scr, p6scr, p10scr1, and p10scr2 to the host proteins fibrinogen, fibronectin, laminin, collagen type I, and collagen type IV, initial binding assays were performed as described previously. For dose-dependent binding assays, recombinant proteins were serially diluted 1:2 from either 10 μM to 0.156 μm (Tp0751_78A used for crystallization and Tp0751_78 WT) or 40 μm to 0.625 μm (peptides p4, p6, p10, p11, p10scr1, and p10scr2). Average absorbance readings (600 nm) from three wells are presented with bars indicating standard error and the results are representative of two independent experiments. Plates were read at 600 nm with a BioTek enzyme-linked immunosorbent assay plate reader (Fisher Scientific, Ottawa, ON). All statistical analyses were performed using the Student’s two-tailed t-test. Non-linear regression curves were fitted and apparent dissociation constants (K d) were calculated using GraphPad Prism data analysis software (San Diego, CA).

[3] = tested on: collagen type I; test: Initial (single point) binding screen of Tp0751 peptide library to immobilized collagen type I; settings: immobilized human collagen type I; absorbance 600 nm, three wells, two independent experiments; Student's two-tailed t-test against non-binding peptides
Procedure: as §1, §2, §3

Row | Sequence | Effect on adhesion of Bb-Tp0751 to HUVEC monolayers [1] | Binding to collagen IV in initial binding screen [2] | Binding to collagen I in initial binding screen [3] | Peptide concentration giving statistically significant lower binding of Bb-Tp0751 to HUVEC monolayers compared with p8 ([1]; preincubation with 0-545 nM peptide, Student's two-tailed t-test, p≤0.005)
1 | HHHHHHGGAAQTHTQPPVQTAMRIALWNRA [p4] | did not alter adhesion | statistically significant binding | statistically significant binding | 
2 | HHHHHHQGALQHLLAGLWIQTEISPNSGDI [p6] | did not alter adhesion | statistically significant binding | statistically significant binding | 
3 | HHHHHHRKTVSFLTRNTAISSIRRRLEVTF [p10] | significantly reduced binding | significant binding | not to collagen I | ≥ 5.45 nM
4 | HHHHHHSIRRRLEVTFESHEVIHVRAVEDV [p11] | did not alter adhesion | statistically significant binding | statistically significant binding | 
